Laboratory results published in the supplement of paper PMC10307832.

Tests used:
Test in all cases: relative viability (nuclei count vs DMSO), 5 days (fraction); higher = more cells survive
XMD14-99 + Decitabine = compound: CN1CCN(CC1)C2=CC(=C(C=C2)NC3=NC(=C(S3)C(=O)C4=C(C=CC=C4Cl)Cl)N)OC [XMD14-99] + Nc1ncn([C@H]2C[C@H](O)[C@@H](CO)O2)c(=O)n1 [Decitabine] (partner 2 µM)
How it was run: (§1)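 Dosing by pin tool came one day after lung cancer cell lines were seeded in 1536-well plates, using either one drug or a fixed anchor-drug dose plus five library-drug doses (not always all listed) in √10 steps. After 5 days, nuclei were counted on 4× images. Relative viability is treated-well nuclei count divided by vehicle-well nuclei count, and values are medians of duplicate plates.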

AZD1208 + Tozasertib = compound: N[C@@H]1CCCN(c2c(/C=C3\SC(=O)NC3=O)cccc2-c2ccccc2)C1 [AZD1208] + Cc1cc(Nc2cc(N3CCN(C)CC3)nc(Sc3ccc(NC(=O)C4CC4)cc3)n2)n[nH]1 [Tozasertib] (partner 0.1 µM)
How it was run: as §1

XMD14-99 + Crizotinib = compound: CN1CCN(CC1)C2=CC(=C(C=C2)NC3=NC(=C(S3)C(=O)C4=C(C=CC=C4Cl)Cl)N)OC [XMD14-99] + C[C@@H](Oc1cc(-c2cnn(C3CCNCC3)c2)cnc1N)c1c(Cl)ccc(F)c1Cl [Crizotinib] (partner 1 µM)
How it was run: as §1

AZD1208 + Vorinostat = compound: N[C@@H]1CCCN(c2c(/C=C3\SC(=O)NC3=O)cccc2-c2ccccc2)C1 [AZD1208] + O=C(CCCCCCC(=O)Nc1ccccc1)NO [Vorinostat] (partner 1 µM)
How it was run: as §1

Cell Line | relative viability (XMD14-99 + Decitabine; first compound 0.08 µM) | relative viability (XMD14-99 + Decitabine; first compound 0.8 µM) | relative viability (XMD14-99 + Decitabine; first compound 2.53 µM) | relative viability (XMD14-99 + Decitabine; first compound 8 µM) | relative viability (AZD1208 + Tozasertib; first compound 0.08 µM) | relative viability (AZD1208 + Tozasertib; first compound 0.253 µM) | relative viability (AZD1208 + Tozasertib; first compound 0.8 µM) | relative viability (AZD1208 + Tozasertib; first compound 2.53 µM) | relative viability (AZD1208 + Tozasertib; first compound 8 µM) | relative viability (XMD14-99 + Crizotinib; first compound 0.08 µM) | relative viability (XMD14-99 + Crizotinib; first compound 0.8 µM) | relative viability (XMD14-99 + Crizotinib; first compound 2.53 µM) | relative viability (XMD14-99 + Crizotinib; first compound 8 µM) | relative viability (AZD1208 + Vorinostat; first compound 0.08 µM) | relative viability (AZD1208 + Vorinostat; first compound 0.253 µM) | relative viability (AZD1208 + Vorinostat; first compound 0.8 µM) | relative viability (AZD1208 + Vorinostat; first compound 2.53 µM) | relative viability (AZD1208 + Vorinostat; first compound 8 µM)
COR-L23 | 0.467 | 0.428 | 0.41 | 0.382 | 0.152 | 0.174 | 0.187 | 0.182 | 0.171 | 0.684 | 0.614 | 0.51 | 0.33 | 0.488 | 0.401 | 0.49 | 0.433 | 0.41
ABC-1 | 1.1 | 1.05 | 0.679 | 0.935 | 0.168 | 0.155 | 0.214 | 0.192 | 0.192 | 1 | 1.07 | 1.04 | 0.802 | 1.75 | 1.08 | 0.922 | 0.997 | 1.02
SW 900 | 0.413 | 0.443 | 0.386 | 0.419 | 0.535 | 0.56 | 0.528 | 0.552 | 0.428 | – | – | – | – | 0.519 | 0.638 | 0.35 | 0.605 | 0.512
PC-14 | 0.26 | 0.238 | 0.201 | 0.142 | 0.554 | 0.55 | 0.467 | 0.503 | 0.463 | 0.824 | 0.796 | 0.866 | 0.714 | 0.674 | 0.78 | 0.719 | 0.687 | 0.604
NCI-H1648 | 0.47 | 0.501 | 0.479 | 0.455 | 0.599 | 0.462 | 0.346 | 0.33 | 0.389 | – | – | – | – | 0.371 | 0.491 | 0.298 | 0.36 | 0.89
A549 | 0.284 | 0.271 | 0.203 | 0.229 | – | – | – | – | – | 0.593 | 0.728 | 0.705 | 0.452 | – | – | – | – | –
A-427 | 0.537 | 0.545 | 0.541 | 0.521 | 0.196 | 0.195 | 0.212 | 0.18 | 0.185 | 0.83 | 0.746 | 0.614 | 0.658 | 0.873 | 0.913 | 0.836 | 0.906 | 0.828
NCI-H1792 | 0.497 | 0.499 | 0.549 | 0.326 | – | – | – | – | – | 1.02 | 0.956 | 1.01 | 0.709 | – | – | – | – | –
LCLC-97TM1 | 0.226 | 0.233 | 0.236 | 0.255 | 0.223 | 0.23 | 0.175 | 0.135 | 0.132 | 0.397 | 0.364 | 0.303 | 0.222 | 0.64 | 0.99 | 0.623 | 0.442 | 0.54
NCI-H1703 | – | – | – | – | – | – | – | – | – | 0.611 | 0.52 | 0.58 | 0.587 | – | – | – | – | –
LCLC-103H | 0.715 | 0.739 | 0.721 | 0.682 | 0.51 | 0.425 | 0.457 | 0.481 | 0.373 | 0.986 | 1.02 | 1.01 | 0.989 | 0.772 | 0.858 | 0.789 | 0.613 | 0.697
